According to patent publication US20240247080A1, “GLP1/GIP/NPY2 RECEPTOR TRIPLE AGONISTS” (Boehringer Ingelheim International GmbH, priority 2022, published 2024):
Where two headings read alike, the source gives them in different places. Starred links: 1 amine or outer side, 2 acyl side, 3 side chain; linkers in the order of their positions; H or OH if unused. Non-standard residues stand in square brackets, D forms with d. Groups on a side chain read outwards from the residue. *: point of attachment. C20 diacid = O=C(O)CCCCCCCCCCCCCCCCCCC(=O)*; C18 diacid = O=C(O)CCCCCCCCCCCCCCCCC(=O)*; γGlu = O=C(O)[C@H](CCC(=O)[*:2])N[*:1]; εLys = N[C@@H](CCCCN[*:1])C(=O)[*:2]; AEEA = NCCOCCOCC(=O)O; Aib = CC(C)(N)C(=O)O

Columns and labels:
Type in all cases: cell-based
Conditions in all cases: CreLuc reporter gene assay
hGIPR = target: T1, hGIPR (Homo sapiens, UniProt P48546); assay: hGIPR CreLuc reporter gene assay in 0.5% and 100% plasma
T1 construct: expressed in transfected cells; host or cells: CHO cells carrying a CRE-luciferase reporter gene
T1 sequence (P48546 22-466): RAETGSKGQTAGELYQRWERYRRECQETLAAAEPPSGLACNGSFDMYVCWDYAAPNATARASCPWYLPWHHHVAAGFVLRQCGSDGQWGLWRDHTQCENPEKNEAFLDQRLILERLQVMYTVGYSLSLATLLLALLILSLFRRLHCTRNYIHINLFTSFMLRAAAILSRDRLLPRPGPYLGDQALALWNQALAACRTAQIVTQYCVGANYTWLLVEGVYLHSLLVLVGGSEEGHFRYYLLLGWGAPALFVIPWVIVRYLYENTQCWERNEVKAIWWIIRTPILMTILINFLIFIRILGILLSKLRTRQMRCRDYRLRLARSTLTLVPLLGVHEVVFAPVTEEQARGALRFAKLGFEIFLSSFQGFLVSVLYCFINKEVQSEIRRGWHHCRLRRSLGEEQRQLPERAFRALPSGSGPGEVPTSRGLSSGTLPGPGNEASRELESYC
How it was run: (§1)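 HEK cells (GLP-1R, NPY2R) or CHO cells (GIPR) carrying a CRE-luciferase reporter, incubated 4 h at 37 °C with peptides in HBSS/20 mM HEPES pH 7.4 plus 0.5% human plasma, or in 100% plasma. Luminescence read; EC50 from 8-point variable-slope sigmoid fits.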

hGLP1R = target: T2, hGLP1R (Homo sapiens, UniProt P43220); assay: hGLP1R CreLuc reporter gene assay in 0.5% and 100% plasma
T2 construct: expressed in transfected cells; host or cells: HEK-293 cells carrying a CRE-luciferase reporter gene
How it was run: as §1

hNPY2R = target: T3, hNPY2R (Homo sapiens, UniProt P49146); assay: hNPY2R CreLuc reporter gene assay in 0.5% and 100% plasma
T3 construct: expressed in transfected cells; host or cells: HEK-293 cells carrying a CRE-luciferase reporter gene
T3 sequence (P49146 1-381): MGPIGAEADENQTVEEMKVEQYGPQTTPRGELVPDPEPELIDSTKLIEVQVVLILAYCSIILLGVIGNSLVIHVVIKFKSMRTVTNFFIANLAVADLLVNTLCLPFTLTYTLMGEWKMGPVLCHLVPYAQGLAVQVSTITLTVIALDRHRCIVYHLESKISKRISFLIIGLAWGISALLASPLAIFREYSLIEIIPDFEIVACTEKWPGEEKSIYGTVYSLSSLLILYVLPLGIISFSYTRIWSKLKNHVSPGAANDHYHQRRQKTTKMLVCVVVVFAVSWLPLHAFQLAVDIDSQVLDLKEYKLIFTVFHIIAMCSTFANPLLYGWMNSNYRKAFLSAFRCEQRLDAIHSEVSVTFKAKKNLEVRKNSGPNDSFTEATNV
How it was run: as §1

[1] = 0.5% human plasma, read-out: hGIPR 0.5% hP
[2] = 0.5% human plasma, read-out: hGLP1R 0.5% hP
[3] = 0.5% human plasma, read-out: hNPY2R 0.5% hP
[4] = 100% human plasma, read-out: hNPY2R 100% hP
[5] = 100% human plasma, read-out: hGIPR 100% hP
[6] = 100% human plasma, read-out: hGLP1R 100% hP

T2 sequence (P43220 24-463): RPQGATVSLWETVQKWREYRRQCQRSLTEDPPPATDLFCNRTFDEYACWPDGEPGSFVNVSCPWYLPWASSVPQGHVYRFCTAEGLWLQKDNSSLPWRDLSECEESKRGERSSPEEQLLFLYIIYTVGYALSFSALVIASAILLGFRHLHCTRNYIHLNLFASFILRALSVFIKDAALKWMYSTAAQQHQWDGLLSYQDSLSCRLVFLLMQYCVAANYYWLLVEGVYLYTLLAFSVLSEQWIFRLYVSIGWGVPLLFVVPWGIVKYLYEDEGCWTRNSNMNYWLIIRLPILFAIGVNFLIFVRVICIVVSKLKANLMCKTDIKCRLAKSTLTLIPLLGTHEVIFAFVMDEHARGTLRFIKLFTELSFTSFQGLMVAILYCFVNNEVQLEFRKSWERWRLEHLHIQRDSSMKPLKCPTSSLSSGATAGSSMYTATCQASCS

| Substance | EC50 (hGIPR; [1]) | EC50 (hGLP1R; [2]) | EC50 (hNPY2R; [3]) | EC50 (hNPY2R; [4]) | EC50 (hGIPR; [5]) | EC50 (hGLP1R; [6]) |
| --- | --- | --- | --- | --- | --- | --- |
| H-Y[Aib]EGTFTSDYSI[Aib]LEKQAQ[Aib]AFVQWLIK([AEEA-AEEA-Glu-Glu-Glu-Glu-C18 diacid])GGPEEGASLRHYYNWLTRQRY-NH2 [Compound 177, Y-Aib-E-G-T-F-T-S-D-Y-S-I-Aib-L-E-K-Q-A-Q-Aib-A-F-V-Q-W-L-I-K(1,3)-GGPEEGASLRHYYNWLTRQRY-NH2.C18DA-E-E-E-E-OEG-OEG(1,2)] | 0.28 nM | 0.16 nM | 18.7 nM | 115 nM | – | – |
| H-Y[Aib]EGTFTSDYSI[Aib]LEKQAQ[Aib]AFVEWLIK([AEEA-AEEA-γGlu-γGlu-γGlu-γGlu-C18 diacid])GGPEEPASLRHYYNWLTRQRY-NH2 [Compound 161, Y-Aib-E-G-T-F-T-S-D-Y-S-I-Aib-L-E-K-Q-A-Q-Aib-A-F-V-E-W-L-I-K(1,3)-GGPEEPASLRHYYNWLTRQRY-NH2.C18DA-gGlu-gGlu-gGlu-gGlu-OEG-OEG(1,2)] | 0.14 nM | 0.21 nM | 11.5 nM | 41.7 nM | 1.23 nM | – |
| H-Y[Aib]EGTFTSDYSI[Aib]LEKQAQ[Aib]AFVEWLIK([γGlu-γGlu-γGlu-γGlu-γGlu-γGlu-C20 diacid])GGPSEGASLRHYYNWLTRQRY-NH2 [Compound 305, Y-Aib-E-G-T-F-T-S-D-Y-S-I-Aib-L-E-K-Q-A-Q-Aib-A-F-V-E-W-L-I-K(1,3)-GGPSEGASLRHYYNWLTRQRY-NH2.C20DA-gGlu-gGlu-gGlu-gGlu-gGlu-gGlu(1,2)] | 0.65 nM | 0.29 nM | 18.3 nM | – | 2.81 nM | – |
| H-Y[Aib]EGTFTSDYSI[Aib]LEKQAQ[Aib]AFVEWLIK([γGlu-γGlu-γGlu-γGlu-γGlu-C18 diacid])GGPSEGASLRHYYNWLTRQRY-NH2 [Compound 292, Y-Aib-E-G-T-F-T-S-D-Y-S-I-Aib-L-E-K-Q-A-Q-Aib-A-F-V-E-W-L-I-K(1,3)-GGPSEGASLRHYYNWLTRQRY-NH2.C18DA-gGlu-gGlu-gGlu-gGlu-gGlu(1,2)] | 0.16 nM | 0.13 nM | 19.9 nM | – | – | – |
| H-Y[Aib]EGTFTSDYSI[Aib]LEKQAQ[Aib]EFVQWLIK([εLys-γGlu-γGlu-γGlu-γGlu-γGlu-γGlu-C18 diacid])GGPSEGASLRHYYNWLTRQRY-NH2 [Compound 153, Y-Aib-E-G-T-F-T-S-D-Y-S-I-Aib-L-E-K-Q-A-Q-Aib-E-F-V-Q-W-L-I-K(1,3)-GGPSEGASLRHYYNWLTRQRY-NH2.C18DA-gGlu-gGlu-gGlu-gGlu-gGlu-gGlu-eLys(1,2)] | 0.22 nM | 0.25 nM | 18.9 nM | 58.5 nM | 1.21 nM | – |
| H-Y[Aib]EGTFTSDYSI[Aib]LEKQAQ[Aib]AFVEWLIK([AEEA-AEEA-γGlu-γGlu-γGlu-γGlu-γGlu-C20 diacid])GGPSSGASLRHYYNWLTRQRY-NH2 [Compound 229, Y-Aib-E-G-T-F-T-S-D-Y-S-I-Aib-L-E-K-Q-A-Q-Aib-A-F-V-E-W-L-I-K(1,3)-GGPSSGASLRHYYNWLTRQRY-NH2.C20DA-gGlu-gGlu-gGlu-gGlu-gGlu-OEG-OEG(1,2)] | 0.22 nM | 0.1 nM | 10.8 nM | 27.2 nM | 1.42 nM | – |
| H-Y[Aib]EGTFTSDYSI[Aib]LEKQAQ[Aib]EFVQWLIK([γGlu-γGlu-γGlu-γGlu-γGlu-γGlu-C18 diacid])GGPSEGASLRHYYNWLTRQRY-NH2 [Compound 151, Y-Aib-E-G-T-F-T-S-D-Y-S-I-Aib-L-E-K-Q-A-Q-Aib-E-F-V-Q-W-L-I-K(1,3)-GGPSEGASLRHYYNWLTRQRY-NH2.C18DA-gGlu-gGlu-gGlu-gGlu-gGlu-gGlu(1,2)] | 0.91 nM | 0.26 nM | 18.9 nM | – | – | 4.39 nM |
| H-Y[Aib]EGTFTSDYSI[Aib]LEKQAQ[Aib]AFVEWLIK([AEEA-AEEA-γGlu-γGlu-γGlu-γGlu-C20 diacid])GGPEEPASLRHYYNWLTRQRY-NH2 [Compound 206, Y-Aib-E-G-T-F-T-S-D-Y-S-I-Aib-L-E-K-Q-A-Q-Aib-A-F-V-E-W-L-I-K(1,3)-GGPEEPASLRHYYNWLTRQRY-NH2.C20DA-gGlu-gGlu-gGlu-gGlu-OEG-OEG(1,2)] | 0.25 nM | – | 13.4 nM | – | – | 17.2 nM |
| H-Y[Aib]EGTFTSDYSI[Aib]LEKQAQ[Aib]AFVEWLIK([εLys-γGlu-γGlu-γGlu-γGlu-γGlu-γGlu-C20 diacid])GGPSSPQSLRHYYNWLTRQRY-NH2 [Compound 41, Y-Aib-E-G-T-F-T-S-D-Y-S-I-Aib-L-E-K-Q-A-Q-Aib-A-F-V-E-W-L-I-K(1,3)-GGPSSPQSLRHYYNWLTRQRY-NH2.C20DA-gGlu-gGlu-gGlu-gGlu-gGlu-gGlu-eLys(1,2)] | 0.07 nM | 0.06 nM | 10.2 nM | 34.6 nM | 0.62 nM | – |
| H-Y[Aib]EGTFTSDYSI[Aib]LEKQAQ[Aib]AFVEWLIK([εLys-γGlu-γGlu-γGlu-γGlu-γGlu-γGlu-C20 diacid])GGPSSYVSIRHYYNWLTRQRY-NH2 [Compound 9, Y-Aib-E-G-T-F-T-S-D-Y-S-I-Aib-L-E-K-Q-A-Q-Aib-A-F-V-E-W-L-I-K(1,3)-GGPSSYVSIRHYYNWLTRQRY-NH2.C20DA-gGlu-gGlu-gGlu-gGlu-gGlu-gGlu-eLys(1,2)] | 0.21 nM | 0.46 nM | 15.2 nM | 18.9 nM | 2.03 nM | – |
| H-Y[Aib]EGTFTSDYSI[Aib]LEKQAQ[Aib]AFVQWLIK([AEEA-AEEA-γGlu-γGlu-γGlu-γGlu-γGlu-C20 diacid])GGPESGASLRHYYNWLTRQRY-NH2 [Compound 32, Y-Aib-E-G-T-F-T-S-D-Y-S-I-Aib-L-E-K-Q-A-Q-Aib-A-F-V-Q-W-L-I-K(1,3)-GGPESGASLRHYYNWLTRQRY-NH2.C20DA-gGlu-gGlu-gGlu-gGlu-gGlu-OEG-OEG(1,2)] | 0.16 nM | 0.07 nM | 12.2 nM | 49.3 nM | 1.15 nM | – |
| H-Y[Aib]EGTFTSDYSI[Aib]LEKQAQ[Aib]EFVQWLIK([AEEA-AEEA-γGlu-γGlu-γGlu-γGlu-γGlu-C20 diacid])GGPSSGASLRHYYNWLTRQRY-NH2 [Compound 36, Y-Aib-E-G-T-F-T-S-D-Y-S-I-Aib-L-E-K-Q-A-Q-Aib-E-F-V-Q-W-L-I-K(1,3)-GGPSSGASLRHYYNWLTRQRY-NH2.C20DA-gGlu-gGlu-gGlu-gGlu-gGlu-OEG-OEG(1,2)] | 0.26 nM | 0.28 nM | 8.03 nM | 26.8 nM | 1.57 nM | – |
| H-Y[Aib]EGTFTSDYSI[Aib]LEKQAQ[Aib]EFVEWLIK([AEEA-AEEA-γGlu-γGlu-γGlu-C18 diacid])GGPSSGASLRHYYNWLTRQRY-NH2 [Compound 171, Y-Aib-E-G-T-F-T-S-D-Y-S-I-Aib-L-E-K-Q-A-Q-Aib-E-F-V-E-W-L-I-K(1,3)-GGPSSGASLRHYYNWLTRQRY-NH2.C18DA-gGlu-gGlu-gGlu-OEG-OEG(1,2)] | 0.2 nM | 0.27 nM | – | 30.4 nM | 0.83 nM | 4.17 nM |
| H-Y[Aib]EGTFTSDYSI[Aib]LEKQAQ[Aib]AFVQWLIK([AEEA-AEEA-Glu-Glu-Glu-Glu-C20 diacid])GGPSEGASLRHYYNWLTRQRY-NH2 [Compound 239, Y-Aib-E-G-T-F-T-S-D-Y-S-I-Aib-L-E-K-Q-A-Q-Aib-A-F-V-Q-W-L-I-K(1,3)-GGPSEGASLRHYYNWLTRQRY-NH2.C20DA-E-E-E-E-OEG-OEG(1,2)] | 0.35 nM | 0.11 nM | 13.6 nM | – | – | 4.76 nM |
